Drawing on patent US9394297B2, “Amides as pim inhibitors” (AMGEN INC., priority 2012, dated 2016), this text covers IC50 for 19 molecules.

Assay [1] has as its target Pim-2 (Homo sapiens (Human), UniProt Q9P1W9). Nature of the assay: Pim-Mn enzyme assay (HTRF, 384-well), Pim-2. The note with it: read-out: Pim-2-Mn IC50 IP. The format is biochemical. For orientation: In TR-FRET formats the signal depends on donor and acceptor labels being close together.
The target of assay [2] is Pim-1 (Homo sapiens (Human), UniProt P11309). Nature of the assay: Pim-Mn enzyme assay (HTRF, 384-well), Pim-1. It counts as biochemical. The note with it: read-out: Pim-1-Mn IC50 IP.
Assay [3] concerns KMS-12-BM cell lines. The experiment in a line: KMS12 #2 flow cytometry assay (phospho-BAD Ser112). The note with it: Homo sapiens, 110 min; KMS-12-BM cells, pBAD Ser112 by flow cytometry, 110 min with compound; read-out: KMS-12-Flow IC50 IP. It counts as cell-based. On the technique in general: A flow cytometer gives signals particle by particle.
Setting [4] is: Pim-2 enzyme 0.5 pM, ATP 1.5 μM, BAD (S112) 0.5 μM, HTRF, 22-point curve.
Where [5] appears, read: Pim-1 enzyme 5 pM, ATP 1.5 μM, BAD (S112) 0.5 μM, HTRF, 22-point curve.

Where two headings read alike, the source gives them in different places.

Sequence of Pim-1 (P11309 whole entry): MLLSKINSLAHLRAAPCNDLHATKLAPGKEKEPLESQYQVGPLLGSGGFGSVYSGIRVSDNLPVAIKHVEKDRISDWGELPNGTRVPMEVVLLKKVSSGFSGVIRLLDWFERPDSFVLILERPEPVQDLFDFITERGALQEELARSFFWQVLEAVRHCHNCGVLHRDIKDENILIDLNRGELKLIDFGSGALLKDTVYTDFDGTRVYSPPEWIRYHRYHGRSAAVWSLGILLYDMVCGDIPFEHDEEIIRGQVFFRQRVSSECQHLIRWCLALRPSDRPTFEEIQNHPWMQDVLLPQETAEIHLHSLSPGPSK
Sequence of Pim-2 (Q9P1W9 whole entry): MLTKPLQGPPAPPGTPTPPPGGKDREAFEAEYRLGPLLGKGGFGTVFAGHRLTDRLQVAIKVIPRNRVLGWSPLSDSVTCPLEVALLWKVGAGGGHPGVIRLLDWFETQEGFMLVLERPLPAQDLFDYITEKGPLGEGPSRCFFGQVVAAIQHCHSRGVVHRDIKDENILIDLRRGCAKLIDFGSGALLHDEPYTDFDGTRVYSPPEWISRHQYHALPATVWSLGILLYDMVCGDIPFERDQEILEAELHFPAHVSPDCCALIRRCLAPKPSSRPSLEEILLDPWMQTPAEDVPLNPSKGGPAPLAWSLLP

One may read the IC50 as the concentration that inhibits the measured activity by half. For `Cc1nc2cccc(-c3[nH]c4c(c3C)C(=O)NCC4)c2nc1NC(C)(C)C` [Example 350, 2-(3-(tert-butylamino)-2-methyl-5-quinoxalinyl)-3-methyl-1,5,6,7-tetrahydro-4H-pyrrolo[3,2-c]pyridin-4-one], the IC50 in assay [1] (setting [4]) is 3.38 nM; in assay [2] (setting [5]), 2.31 nM; in assay [3] it was 1510 nM.
On the same counts, the results for `Cc1nc2cccc(-c3cc4n(c3)C(=O)NC4)c2nc1NC(C)(C)C` [Example 421, 6-(3-(tert-butylamino)-2-methylquinoxalin-5-yl)-1H-pyrrolo[1,2-c]imidazol-3(2H)-one] are 189 nM, 86 nM and 21200 nM.
In the case of `Cc1nc2cccc(-c3cc4c([nH]3)C(C)N(C(=O)OC(C)(C)C)C4=O)c2nc1NC(C)(C)C` (stereo not drawn) [Example 316, tert-butyl 2-(3-(tert-butylamino)-2-methylquinoxalin-5-yl)-6-methyl-4-oxo-4,6-dihydropyrrolo[3,4-b]pyrrole-5(1H)-carboxylate], the IC50 in assay [1] (setting [4]) amounted to 75 nM; in assay [2] (setting [5]), 36 nM; in assay [3], 21500 nM.
On to `C#Cc1nc2cccc(-c3cc4c([nH]3)CCNC4=O)c2nc1NC(C)(C)C` [Example 307, 2-(3-(tert-butylamino)-2-ethynylquinoxalin-5-yl)-6,7-dihydro-1H-pyrrolo[3,2-c]pyridin-4(5H)-one], for which the half-inhibitory concentration (IC50) turned out to be 1.45 nM in assay [1] (setting [4]), 1.63 nM in assay [2] (setting [5]) and 590 nM in assay [3].
For the molecule `Cc1nc2cccc(-c3cc4c([nH]3)[C@@H](C)NC4=O)c2nc1O[C@H](C)C(F)(F)F` [Example 453, (6R)-6-methyl-2-(2-methyl-3-((1R)-2,2,2-trifluoro-1-methylethoxy)-5-quinoxalinyl)-5,6-dihydropyrrolo[3,4-b]pyrrol-4(1H)-one], the results for the IC50 in assay [1] (setting [4]), in assay [2] (setting [5]) and in assay [3] were 258 nM, 37.5 nM and above 40000 nM, respectively.
The corresponding values for `Cc1nc2cccc(-c3cc(C(N)=O)n[nH]3)c2nc1NC(C)(C)C` [Example 467, 5-(3-(tert-butylamino)-2-methylquinoxalin-5-yl)-1H-pyrazole-3-carboxamide] are 8.9 nM, 21.6 nM and 3880 nM.
As for `Cc1nc2cccc(-c3cc4c([nH]3)[C@@H](CO)NC4=O)c2nc1NC1CC1` [Example 366, (S)-2-(3-(cyclopropylamino)-2-methylquinoxalin-5-yl)-6-(hydroxymethyl)-5,6-dihydropyrrolo[3,4-b]pyrrol-4(1H)-one], the results for the IC50 in assay [1] (setting [4]), in assay [2] (setting [5]) and in assay [3] were 0.177 nM, 0.192 nM and 79.4 nM, respectively.
As to `Cc1nc2cccc(-c3cc4c([nH]3)[C@@H](C)NC4=O)c2nc1NC(C)C` [Example 287, (6R)-6-methyl-2-(2-methyl-3-((1-methylethyl)amino)-5-quinoxalinyl)-5,6-dihydropyrrolo[3,4-b]pyrrol-4(1H)-one], the IC50 in assay [1] (setting [4]) is 1.64 nM; in assay [2] (setting [5]), 1.78 nM; in assay [3], 75.8 nM.
The corresponding values for `Cc1nc2cccc(-c3cc4c([nH]3)CCNC4=O)c2nc1-c1ccoc1` [Example 431, 2-(3-(Furan-3-yl)-2-methylquinoxalin-5-yl)-6,7-dihydro-1H-pyrrolo[3,2-c]pyridin-4(5H)-one] are 61.9 nM, 67.3 nM and 5060 nM.
Take `Cc1nc2ccnc(-c3cc4c([nH]3)CCNC4=O)c2nc1NC(C)(C)C` [Example 368, 2-(3-(tert-butylamino)-2-methylpyrido[3,4-b]pyrazin-5-yl)-6,7-dihydro-1H-pyrrolo[3,2-c]pyridin-4(5H)-one]: the IC50 stood at 33.7 nM in assay [1] (setting [4]), 30.8 nM in assay [2] (setting [5]) and 13300 nM in assay [3].
Turning to `Cc1nc2cccc(-c3cc4c([nH]3)C3(CC3)NC4=O)c2nc1NCC(F)(F)F` [Example 381, 2′-(2-methyl-3-((2,2,2-trifluoroethyl)amino)quinoxalin-5-yl)-1′H-spiro[cyclopropane-1,6′-pyrrolo[3,4-b]pyrrol]-4′(5′H)-one], the half-maximal inhibitory concentration (IC50) in assay [1] came to 1.36 nM; in assay [2] it was 1.6 nM; in assay [3] it was 215 nM.
Regarding `Cc1nc2cccc(-c3cc4c([nH]3)C(COCc3ccccc3)NC4=O)c2nc1NC1(C)CC1` (stereo not drawn) [Example 355, 6-((benzyloxy)methyl)-2-(2-methyl-3-((1-methylcyclopropyl)amino)quinoxalin-5-yl)-5,6-dihydropyrrolo[3,4-b]pyrrol-4 (1H)-one], the IC50 in assay [1] (setting [4]) was 1.86 nM; in assay [2] it was 1.79 nM; in assay [3] it was 2430 nM.
Take `Cc1nc2cccc(-c3cc4c([nH]3)CCNC4=O)c2nc1NC(C)(C)CN` [Example 341, 2-(3-((2-amino-1,1-dimethylethyl)amino)-2-methyl-5-quinoxalinyl)-1,5,6,7-tetrahydro-4H-pyrrolo[3,2-c]pyridin-4-one]: the IC50 came to 10.7 nM in assay [1], 6.85 nM in assay [2] (setting [5]) and 7830 nM in assay [3].
As to `Cc1nc2cccc(-c3cc4c([nH]3)[C@H](C)NC4=O)c2nc1NC1(C)CC1` [Example 328, (6S)-6-methyl-2-(2-methyl-3-((1-methylcyclopropyl)amino)-5-quinoxalinyl)-5,6-dihydropyrrolo[3,4-b]pyrrol-4(1H)-one], the IC50 turned out to be 0.201 nM in assay [1] (setting [4]), 0.195 nM in assay [2] (setting [5]) and 46 nM in assay [3].
Regarding `Cc1nc2ccc(F)c(-c3cc4c([nH]3)C3(CC3)NC4=O)c2nc1NC1(C)CC1` [Example 378, 2′-(6-fluoro-2-methyl-3-((1-methylcyclopropyl)amino)quinoxalin-5-yl)-1′H-spiro[cyclopropane-1,6′-pyrrolo[3,4-b]pyrrol]-4′(5′H)-one], the IC50 in assay [1] is 0.0354 nM; in assay [2] it was 0.0295 nM; in assay [3] it was 16.1 nM.
For the molecule `Cc1nc2ccc(F)c(-c3cc4c([nH]3)[C@H](C)NC4=O)c2nc1NC1(C)CC1` [Example 380, (S)-2-(6-fluoro-2-methyl-3-((1-methylcyclopropyl)amino)quinoxalin-5-yl)-6-methyl-5,6-dihydropyrrolo[3,4-b]pyrrol-4(1H)-one], the half-maximal inhibitory concentration (IC50) was determined as 0.385 nM in assay [1] (setting [4]), 0.249 nM in assay [2] (setting [5]) and 34.7 nM in assay [3].
Regarding `Cc1nc2cccc(-c3cc(C(N)=O)c(C4CC4)[nH]3)c2nc1NC(C)(C)C` [Example 418, 5-(3-(tert-butylamino)-2-methylquinoxalin-5-yl)-2-cyclopropyl-1H-pyrrole-3-carboxamide], the IC50 in assay [1] (setting [4]) worked out at 7.79 nM; in assay [2] (setting [5]) it was 3.52 nM; in assay [3], 3150 nM.
For `Cc1nc2cccc(-c3cc4c([nH]3)CCNC4=O)c2nc1NC(=O)C1CC1` [Example 446, N-(3-methyl-8-(4-oxo-4,5,6,7-tetrahydro-1H-pyrrolo[3,2-c]pyridin-2-yl)quinoxalin-2-yl)cyclopropanecarboxamide], the concentration for half-maximal inhibition (IC50) was 131 nM in assay [1] (setting [4]), 145 nM in assay [2] (setting [5]) and above 40000 nM in assay [3].
With `Cc1nc2cccc(-c3cc4c([nH]3)C3(CC3)NC4=O)c2nc1NCC(F)F` [Example 331, 2′-(3-((2,2-difluoroethyl)amino)-2-methylquinoxalin-5-yl)-1′H-spiro[cyclopropane-1,6′-pyrrolo[3,4-b]pyrrol]-4′(5′H)-one], the values for the IC50 in assay [1] (setting [4]), in assay [2] (setting [5]) and in assay [3] were 1.12 nM, 1.67 nM and 130 nM, respectively.
